Tests used:
Assay in all cases: KINOMEscan competition binding
Conditions in all cases: compound 10.0 µM
[1] = target: MET (human) (UniProt P08581)
[2] = target: SRPK1 (human) (UniProt Q96SB4)
[3] = target: MAP2K6 (human) (UniProt P52564)
[4] = target: HIPK3 (human) (UniProt Q9H422)
[5] = target: MATK (human) (UniProt P42679)
[6] = target: CDK14 (human) (UniProt O94921)
[7] = target: ROCK2 (human) (UniProt O75116)
[8] = target: PTK2 (human) (UniProt Q05397)
[9] = tested on: KIT (human), P10721 [V559D/T670I]
[10] = target: JAK3 JH1 catalytic (human) (UniProt P52333)
[11] = target: STK10 (human) (UniProt O94804)
[12] = target: PRKCD (human) (UniProt Q05655)
[13] = target: RPS6KA2 KD2 (human) (UniProt Q15349)
[14] = target: FLT3 (human) (UniProt P36888)
[15] = target: CaMK1 (human) (UniProt Q14012)
[16] = target: CDK15 (human) (UniProt Q96Q40)
[17] = target: FER (human) (UniProt P16591)
[18] = target: MAP2K3 (human) (UniProt P46734)
[19] = target: TSSK1B (human) (UniProt Q9BXA7)
[20] = target: NTRK1 (human) (UniProt P04629)
[21] = target: EPHA1 (human) (UniProt P21709)
[22] = target: CAMK2G (human) (UniProt Q13555)
[23] = target: ROCK1 (human) (UniProt Q13464)
[24] = target: NEK1 (human) (UniProt Q96PY6)
[25] = target: PLK3 (human) (UniProt Q9H4B4)
[26] = target: MAP2K1 (human) (UniProt Q02750)
[27] = target: ABL2 (human) (UniProt P42684)
[28] = target: CAMKK1 (human) (UniProt Q8N5S9)
[29] = target: MAP3K7 (human) (UniProt O43318)
[30] = target: RIPK1 (human) (UniProt Q13546)
[31] = target: TNIK (human) (UniProt Q9UKE5)
[32] = target: ACVR2A (human) (UniProt P27037)
[33] = target: PLK4 (human) (UniProt O00444)
[34] = target: SRPK2 (human) (UniProt P78362)
[35] = target: SIK1 (human) (UniProt P57059)
[36] = target: PRKD2 (human) (UniProt Q9BZL6)
[37] = target: JAK1 JH1 catalytic (human) (UniProt P23458)
[38] = tested on: ABL1 (human), P00519 [T315I]
[39] = tested on: FGFR3 (human), P22607 [G697C]
[40] = target: TEC (human) (UniProt P42680)
[41] = target: MYO3B (human) (UniProt Q8WXR4)

KIT (human), P10721 [V559D/T670I], sequence (P10721 whole entry V559D/T670I, looked up): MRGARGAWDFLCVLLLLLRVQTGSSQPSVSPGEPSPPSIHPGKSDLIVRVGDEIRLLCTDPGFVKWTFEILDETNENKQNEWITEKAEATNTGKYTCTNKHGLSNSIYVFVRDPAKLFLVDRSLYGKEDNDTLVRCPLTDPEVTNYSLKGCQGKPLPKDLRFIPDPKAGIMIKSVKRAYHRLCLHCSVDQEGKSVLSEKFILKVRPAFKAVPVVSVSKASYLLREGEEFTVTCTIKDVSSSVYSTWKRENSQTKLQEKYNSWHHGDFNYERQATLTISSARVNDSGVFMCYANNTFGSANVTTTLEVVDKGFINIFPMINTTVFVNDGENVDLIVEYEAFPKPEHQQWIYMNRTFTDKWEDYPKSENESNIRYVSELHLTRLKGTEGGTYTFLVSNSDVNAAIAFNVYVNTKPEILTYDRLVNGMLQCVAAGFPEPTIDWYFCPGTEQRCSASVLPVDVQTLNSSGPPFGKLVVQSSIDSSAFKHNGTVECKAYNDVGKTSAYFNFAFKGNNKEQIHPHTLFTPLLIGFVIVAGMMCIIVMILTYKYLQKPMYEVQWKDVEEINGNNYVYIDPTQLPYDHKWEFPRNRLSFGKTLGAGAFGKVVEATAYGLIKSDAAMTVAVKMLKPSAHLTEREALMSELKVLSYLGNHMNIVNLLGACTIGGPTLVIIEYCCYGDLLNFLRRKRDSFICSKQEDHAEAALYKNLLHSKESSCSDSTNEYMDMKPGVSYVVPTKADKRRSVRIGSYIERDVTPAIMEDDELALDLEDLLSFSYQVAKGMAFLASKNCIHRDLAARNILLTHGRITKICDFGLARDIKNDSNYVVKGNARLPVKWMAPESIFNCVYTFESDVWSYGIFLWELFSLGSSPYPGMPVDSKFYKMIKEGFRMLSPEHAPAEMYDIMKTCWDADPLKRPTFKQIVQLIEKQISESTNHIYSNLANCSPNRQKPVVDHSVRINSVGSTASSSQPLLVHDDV
JAK3 JH1 catalytic (human), sequence (P52333 whole entry, looked up): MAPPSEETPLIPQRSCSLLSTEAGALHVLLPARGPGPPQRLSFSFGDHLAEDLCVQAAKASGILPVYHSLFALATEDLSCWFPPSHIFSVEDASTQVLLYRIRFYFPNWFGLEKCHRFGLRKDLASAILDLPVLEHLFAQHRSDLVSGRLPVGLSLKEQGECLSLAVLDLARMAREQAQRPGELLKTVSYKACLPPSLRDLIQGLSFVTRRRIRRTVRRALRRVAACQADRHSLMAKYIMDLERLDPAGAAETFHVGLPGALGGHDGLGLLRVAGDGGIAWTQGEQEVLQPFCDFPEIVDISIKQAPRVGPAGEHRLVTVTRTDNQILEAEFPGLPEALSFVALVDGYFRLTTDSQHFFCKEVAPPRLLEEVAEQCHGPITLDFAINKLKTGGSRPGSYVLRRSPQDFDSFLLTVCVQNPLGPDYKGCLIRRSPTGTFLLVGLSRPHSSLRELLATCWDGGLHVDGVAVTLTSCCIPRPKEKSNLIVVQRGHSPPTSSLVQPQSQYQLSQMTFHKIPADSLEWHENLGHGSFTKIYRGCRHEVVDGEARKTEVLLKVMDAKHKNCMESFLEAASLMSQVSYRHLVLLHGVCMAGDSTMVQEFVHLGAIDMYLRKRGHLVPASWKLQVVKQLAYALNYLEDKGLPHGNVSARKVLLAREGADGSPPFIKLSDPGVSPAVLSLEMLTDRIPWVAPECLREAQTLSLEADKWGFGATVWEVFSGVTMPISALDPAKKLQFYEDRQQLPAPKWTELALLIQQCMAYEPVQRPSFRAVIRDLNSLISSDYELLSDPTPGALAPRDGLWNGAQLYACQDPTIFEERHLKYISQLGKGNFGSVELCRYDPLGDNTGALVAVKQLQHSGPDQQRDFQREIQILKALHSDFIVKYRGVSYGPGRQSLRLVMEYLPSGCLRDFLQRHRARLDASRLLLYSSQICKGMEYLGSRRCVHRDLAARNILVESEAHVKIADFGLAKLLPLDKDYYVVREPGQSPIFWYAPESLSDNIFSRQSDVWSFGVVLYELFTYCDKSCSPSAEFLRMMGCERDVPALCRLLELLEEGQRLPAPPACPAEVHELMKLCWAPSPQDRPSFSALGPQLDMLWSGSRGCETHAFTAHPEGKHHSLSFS
FLT3 (human), sequence (P36888 whole entry, looked up): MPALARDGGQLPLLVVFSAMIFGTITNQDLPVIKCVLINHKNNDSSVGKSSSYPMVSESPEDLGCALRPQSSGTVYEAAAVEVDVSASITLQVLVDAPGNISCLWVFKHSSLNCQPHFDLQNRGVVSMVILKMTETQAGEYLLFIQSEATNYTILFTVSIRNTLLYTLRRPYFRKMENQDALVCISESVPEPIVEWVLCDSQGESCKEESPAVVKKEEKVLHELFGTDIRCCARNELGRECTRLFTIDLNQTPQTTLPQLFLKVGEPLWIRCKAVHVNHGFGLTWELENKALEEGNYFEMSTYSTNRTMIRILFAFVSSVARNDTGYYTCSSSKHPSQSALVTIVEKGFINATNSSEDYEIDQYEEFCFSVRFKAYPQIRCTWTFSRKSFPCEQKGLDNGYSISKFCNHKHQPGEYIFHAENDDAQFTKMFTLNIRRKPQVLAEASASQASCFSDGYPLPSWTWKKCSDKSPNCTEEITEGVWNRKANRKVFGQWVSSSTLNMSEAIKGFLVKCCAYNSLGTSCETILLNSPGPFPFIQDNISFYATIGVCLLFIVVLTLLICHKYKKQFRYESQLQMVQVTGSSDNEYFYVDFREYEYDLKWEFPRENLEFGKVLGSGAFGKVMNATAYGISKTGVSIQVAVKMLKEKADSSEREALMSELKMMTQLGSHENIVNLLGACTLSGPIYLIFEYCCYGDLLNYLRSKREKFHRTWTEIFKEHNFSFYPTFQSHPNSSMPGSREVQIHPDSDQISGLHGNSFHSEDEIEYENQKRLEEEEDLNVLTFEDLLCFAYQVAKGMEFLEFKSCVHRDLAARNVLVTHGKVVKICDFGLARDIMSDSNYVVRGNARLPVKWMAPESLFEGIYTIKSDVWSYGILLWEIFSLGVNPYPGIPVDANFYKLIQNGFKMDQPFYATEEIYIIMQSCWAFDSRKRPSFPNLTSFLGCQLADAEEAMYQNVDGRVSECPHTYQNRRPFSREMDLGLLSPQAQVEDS
RIPK1 (human), sequence (Q13546 whole entry, looked up): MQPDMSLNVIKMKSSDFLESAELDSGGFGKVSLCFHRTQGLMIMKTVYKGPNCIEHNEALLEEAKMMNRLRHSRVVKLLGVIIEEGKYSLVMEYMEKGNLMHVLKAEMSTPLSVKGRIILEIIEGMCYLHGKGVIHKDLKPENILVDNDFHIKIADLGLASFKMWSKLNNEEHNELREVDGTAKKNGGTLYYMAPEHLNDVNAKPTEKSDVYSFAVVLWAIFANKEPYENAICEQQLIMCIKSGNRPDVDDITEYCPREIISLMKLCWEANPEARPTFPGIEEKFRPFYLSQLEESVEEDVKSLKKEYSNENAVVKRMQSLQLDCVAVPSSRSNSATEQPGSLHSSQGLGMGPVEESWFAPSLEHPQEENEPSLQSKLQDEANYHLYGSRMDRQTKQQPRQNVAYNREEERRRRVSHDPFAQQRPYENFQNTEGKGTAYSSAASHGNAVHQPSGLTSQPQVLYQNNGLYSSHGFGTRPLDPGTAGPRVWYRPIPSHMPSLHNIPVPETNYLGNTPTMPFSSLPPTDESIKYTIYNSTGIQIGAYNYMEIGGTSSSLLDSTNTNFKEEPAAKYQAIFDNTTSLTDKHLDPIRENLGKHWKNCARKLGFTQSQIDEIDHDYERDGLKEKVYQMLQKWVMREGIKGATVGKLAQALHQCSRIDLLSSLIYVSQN
PRKD2 (human), sequence (Q9BZL6 whole entry, looked up): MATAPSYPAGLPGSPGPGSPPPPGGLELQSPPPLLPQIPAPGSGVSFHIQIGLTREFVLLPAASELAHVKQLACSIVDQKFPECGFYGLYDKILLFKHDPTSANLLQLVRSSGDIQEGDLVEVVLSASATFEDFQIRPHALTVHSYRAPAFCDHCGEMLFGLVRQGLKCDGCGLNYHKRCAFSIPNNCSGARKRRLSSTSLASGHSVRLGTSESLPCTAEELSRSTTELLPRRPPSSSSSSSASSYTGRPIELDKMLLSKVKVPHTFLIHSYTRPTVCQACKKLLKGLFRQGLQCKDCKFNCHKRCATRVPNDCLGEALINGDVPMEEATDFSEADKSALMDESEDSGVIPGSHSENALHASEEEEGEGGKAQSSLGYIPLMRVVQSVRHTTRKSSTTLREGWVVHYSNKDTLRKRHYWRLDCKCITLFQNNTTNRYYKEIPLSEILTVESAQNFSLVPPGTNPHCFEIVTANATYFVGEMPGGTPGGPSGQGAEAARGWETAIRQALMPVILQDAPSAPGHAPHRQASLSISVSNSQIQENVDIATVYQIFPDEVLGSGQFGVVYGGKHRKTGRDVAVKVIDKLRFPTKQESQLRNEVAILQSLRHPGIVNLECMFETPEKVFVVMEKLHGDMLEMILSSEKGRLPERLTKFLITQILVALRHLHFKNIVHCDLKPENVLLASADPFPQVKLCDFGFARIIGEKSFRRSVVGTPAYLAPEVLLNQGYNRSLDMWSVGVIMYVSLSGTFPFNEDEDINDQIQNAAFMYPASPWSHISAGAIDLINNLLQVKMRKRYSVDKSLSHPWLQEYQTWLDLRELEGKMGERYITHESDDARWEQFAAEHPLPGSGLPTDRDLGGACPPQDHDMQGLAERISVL
MAP2K6 (human), sequence (P52564 whole entry, looked up): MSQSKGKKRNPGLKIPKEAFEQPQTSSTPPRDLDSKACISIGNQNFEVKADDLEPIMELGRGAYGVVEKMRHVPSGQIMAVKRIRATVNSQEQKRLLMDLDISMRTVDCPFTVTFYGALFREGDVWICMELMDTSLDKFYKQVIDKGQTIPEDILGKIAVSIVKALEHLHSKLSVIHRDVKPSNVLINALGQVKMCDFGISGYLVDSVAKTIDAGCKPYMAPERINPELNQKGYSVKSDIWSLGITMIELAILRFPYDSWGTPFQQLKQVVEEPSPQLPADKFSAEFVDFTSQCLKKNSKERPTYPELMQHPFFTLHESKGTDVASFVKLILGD

kinase still bound, per cent of control [1]: 96%
kinase still bound, per cent of control [2]: 100%
kinase still bound, per cent of control [3]: 73%
kinase still bound, per cent of control [4]: 100%
kinase still bound, per cent of control [5]: 79%
kinase still bound, per cent of control [6]: 100%
kinase still bound, per cent of control [7]: 100%
kinase still bound, per cent of control [8]: 96%
kinase still bound, per cent of control [9]: 91%
kinase still bound, per cent of control [10]: 100%
kinase still bound, per cent of control [11]: 100%
kinase still bound, per cent of control [12]: 100%
kinase still bound, per cent of control [13]: 100%
kinase still bound, per cent of control [14]: 100%
kinase still bound, per cent of control [15]: 100%
kinase still bound, per cent of control [16]: 95%
kinase still bound, per cent of control [17]: 100%
kinase still bound, per cent of control [18]: 87%
kinase still bound, per cent of control [19]: 94%
kinase still bound, per cent of control [20]: 100%
kinase still bound, per cent of control [21]: 100%
kinase still bound, per cent of control [22]: 100%
kinase still bound, per cent of control [23]: 85%
kinase still bound, per cent of control [24]: 79%
kinase still bound, per cent of control [25]: 80%
kinase still bound, per cent of control [26]: 100%
kinase still bound, per cent of control [27]: 100%
kinase still bound, per cent of control [28]: 100%
kinase still bound, per cent of control [29]: 51%
kinase still bound, per cent of control [30]: 100%
kinase still bound, per cent of control [31]: 96%
kinase still bound, per cent of control [32]: 100%
kinase still bound, per cent of control [33]: 69%
kinase still bound, per cent of control [34]: 100%
kinase still bound, per cent of control [35]: 100%
kinase still bound, per cent of control [36]: 100%
kinase still bound, per cent of control [37]: 94%
kinase still bound, per cent of control [38]: 100%
kinase still bound, per cent of control [39]: 100%
kinase still bound, per cent of control [40]: 100%
kinase still bound, per cent of control [41]: 100%
Compound: Cc1cnc(-c2cnc(NCCNc3ccc(C#N)cn3)nc2-c2ccc(Cl)cc2Cl)[nH]1
